Reference: patent US20110159019A1, “2,4-DIAMINOPYRIMIDINE COMPOUND” (priority 2008, published 2011)

Molecular target: T1, Cytochrome P450 (CYP3A4) (Homo sapiens, UniProt P08684)
T1 construct: human liver microsome (0.1 mg protein/mL); from tissue; host or cells: human liver microsomes
Test: Measurement of cytochrome P450 (CYP3A4) enzyme inhibition activity in human liver microsome (inhibition tests I and II, midazolam substrate)
Type: in vitro ADME
Settings: for I (%) Remaining Rate I: inhibition test I: 5 μM test compound, 2 μM midazolam, human liver microsome, 37° C. 20 minutes, no preincubation; for II (%) Remaining Rate II: inhibition test II: 5 μM test compound preincubated 30 minutes with human liver microsome and NADPH, then 2 μM midazolam 20 minutes, relative to test I
Procedure: Test Method 3: Measurement of Cytochrome P450 (CYP3A4) Enzyme Inhibition Activity i) Inhibition Test I (Calculation of Remaining Rate I)
Using a 96-well plate, 2 μM of a substrate (midazolam), 5 μM of a test compound, and human liver microsome (0.1 mg protein/mL) were incubated at 37° C. for 20 minutes in a total amount of 150 μL of a 100 mM phosphate buffer (pH 7.4) containing 0.1 mM EDTA and 1 mM NADPH. Then, the reaction was stopped by adding 130 μl of an aqueous solution containing 80% acetonitrile. Thereafter, the samples were analyzed by LC/MS/MS, and the remaining rates I were calculated using the following equation 1.
Remaining Rate I(%)=Ai,I/Ao,I×100 (Equation 1)
Ai, I=Amount of produced metabolite after reaction in the presence of the test compound in the inhibition test I Ao, I=Amount of produced metabolite after reaction in the absence of the test compound in the inhibition test I ii) Inhibition Test II (Calculation of Remaining Rate II)
Using a 96-well plate, 5 μM of a test compound and human liver microsome (0.1 mg protein/mL) were incubated at 37° C. for 30 minutes in a total amount of 145 μL of a 100 mM phosphate buffer (pH=7.4) containing 0.1 mM EDTA and 1 mM NADPH. Then, 2 μM of midazolam as the substrate was added thereto at a total amount of 150 μL of and incubated at 37° C. for 20 minutes. After the incubation, the reaction was stopped by adding 130 μL of an aqueous solution containing 80% acetonitrile. Thereafter, the samples were analyzed by LC/MS/MS, and the remaining rate II was calculated using the following equation 2.
Remaining Rate II(%)=Ai,II/Ao,II/(Ai,I/Ao,I)×100 (Equation 2)
Ai, II=Amount of produced metabolite after reaction in the presence of the test compound in the inhibition test II […]=Amount of produced metabolite after reaction in the absence of the test compound in the inhibition test II […]
Ex represents No. of the Example Compounds as described below.

T1 sequence (P08684 whole entry): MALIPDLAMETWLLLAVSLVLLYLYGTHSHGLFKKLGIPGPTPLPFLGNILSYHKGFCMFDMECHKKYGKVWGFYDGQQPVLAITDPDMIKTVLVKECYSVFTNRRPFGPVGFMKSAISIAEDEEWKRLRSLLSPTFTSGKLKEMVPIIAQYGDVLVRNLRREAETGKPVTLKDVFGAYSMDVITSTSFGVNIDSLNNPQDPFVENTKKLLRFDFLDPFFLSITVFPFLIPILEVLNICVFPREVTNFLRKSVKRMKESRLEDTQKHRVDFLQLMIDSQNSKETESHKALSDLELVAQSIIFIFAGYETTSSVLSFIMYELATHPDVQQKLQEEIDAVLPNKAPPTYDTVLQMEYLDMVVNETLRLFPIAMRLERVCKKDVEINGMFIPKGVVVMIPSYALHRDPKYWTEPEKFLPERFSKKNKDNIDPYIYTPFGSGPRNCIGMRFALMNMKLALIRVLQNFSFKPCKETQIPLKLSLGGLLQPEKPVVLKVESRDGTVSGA

SMILES	I (%) Remaining Rate I [%]	II (%) Remaining Rate II [%]
COc1ccccc1CNc1ncc(C#N)c(NC[C@]23CC4C[C@H](C2)[C@@H](N[C@H]2CC[C@H](O)CC2)[C@@H](C4)C3)n1 (relative stereo) [Example 62]	87	81
CSc1ccccc1CNc1ncc(C#N)c(NC[C@]23CC4C[C@H](C2)[C@@H](NC2CCC(O)CC2)[C@@H](C4)C3)n1 (relative stereo) [Example 68, rel-4-[({(1S,3R,4S,5S)-4-[(4-hydroxycyclohexyl)amino]adamantan-1-yl}methyl)amino]-2-{[2-(methylsulfanyl)benzyl]amino}pyrimidine-5-carbonitrile]	82	90
COCCN1CCC(N[C@@H]2[C@@H]3CC4C[C@H]2C[C@@](CNc2nc(NCc5ccccc5Cl)ncc2C#N)(C4)C3)CC1 (relative stereo) [Example 210]	77	94
N#Cc1cnc(NCc2ccccc2Cl)nc1NC[C@]12CC3C[C@H](C1)[C@@H](NC1CCN(CCF)CC1)[C@@H](C3)C2 (relative stereo) [Example 212]	81	85
N#Cc1cnc(NCc2ccccc2Cl)nc1NC[C@]12CC3C[C@H](C1)[C@@H](NCC1CCN(CCO)CC1)[C@@H](C3)C2 (relative stereo) [Example 216]	92	90
N#Cc1cnc(NCc2ccccc2Cl)nc1NC[C@]12CC3C[C@H](C1)[C@@H](N[C@H]1CC[C@@H](NCCO)CC1)[C@@H](C3)C2 (relative stereo) [Example 220, rel-2-[(2-chlorobenzyl)amino]-4-({[(1R,3S,4R,5R)-4-({cis-4-[(2-hydroxyethyl)amino]cyclohexyl}amino)adamantan-1-yl]methyl}amino)pyrimidine-5-carbonitrile]	82	85
CSc1ccccc1CNc1ncc(C#N)c(NC[C@]23CC4C[C@H](C2)C(NC[C@H]2CC[C@H](O)CC2)[C@@H](C4)C3)n1 (relative stereo) [Example 228]	79	91
COc1ncccc1CNc1ncc(C#N)c(NC[C@]23CC4C[C@H](C2)C(N[C@H]2CC[C@H](CO)CC2)[C@@H](C4)C3)n1 (relative stereo) [Example 232]	88	94
N#Cc1cnc(NCc2ccccc2Cl)nc1NC[C@]12CC3C[C@H](C1)[C@@H](NC1CCC(N4CCC[C@@H]4CO)CC1)[C@@H](C3)C2 (relative stereo) [Example 238]	75	81
CN1CCC(N[C@@H]2[C@@H]3CC4C[C@H]2C[C@@](CNc2nc(NCc5ccccc5Cl)ncc2C#N)(C4)C3)CC1 (relative stereo) [Example 248]	88	82
COc1ncccc1CNc1ncc(C#N)c(NC[C@]23CC4C[C@H](C2)[C@@H](NC2CCC(O)CC2)[C@@H](C4)C3)n1 (relative stereo) [Example 252]	85	80
CSc1ncccc1CNc1ncc(C#N)c(NC[C@]23CC4C[C@H](C2)[C@@H](NC2CCC(O)CC2)[C@@H](C4)C3)n1 (relative stereo) [Example 258]	88	90
N#Cc1cnc(NCc2ccccc2Cl)nc1NC[C@]12CC3C[C@H](C1)[C@@H](NC1CCN(C4CCOCC4)CC1)[C@@H](C3)C2 (relative stereo) [Example 266]	83	99
CC(=O)N1CCC(N[C@H]2CC[C@@H](N[C@@H]3[C@@H]4CC5C[C@H]3C[C@@](CNc3nc(NCc6ccccc6Cl)ncc3C#N)(C5)C4)CC2)CC1 (relative stereo) [Example 281, rel-4-({[(1R,3S,4R,5R)-4-({cis-4-[(1-acetylpiperidin-4-yl)amino]cyclohexyl}amino)adamantan-1-yl]methyl}amino)-2-[(2-chlorobenzyl)amino]pyrimidine-5-carbonitrile]	89	83
N#Cc1cnc(NCc2ccccc2Cl)nc1NC[C@]12CC3C[C@H](C1)[C@@H](N[C@H]1CC[C@@H](NC4CCOCC4)CC1)[C@@H](C3)C2 (relative stereo) [Example 282]	81	91
CSc1ccccc1CNc1ncc(C#N)c(NC[C@]23CC4C[C@H](C2)[C@@H](NC2CCNCC2)[C@@H](C4)C3)n1 (relative stereo) [Example 290]	85	88

SMILES	I (%) Remaining Rate I [%]	II (%) Remaining Rate II [%]
CC1(N)CCC(N[C@@H]2[C@@H]3CC4C[C@H]2C[C@@](CNc2nc(NCc5ccccc5Cl)ncc2C#N)(C4)C3)CC1 (relative stereo) [Example 314]	85	84
CNC1CCC(N[C@@H]2[C@@H]3CC4C[C@H]2C[C@@](CNc2nc(NCc5ccccc5Cl)ncc2C#N)(C4)C3)CC1 (relative stereo) [Example 316]	85	84
N#Cc1cnc(NCc2ccccc2OC(F)(F)F)nc1NC[C@]12CC3C[C@H](C1)[C@@H](NCC1CCNCC1)[C@@H](C3)C2 (relative stereo) [Example 329]	92	95
CSc1ccccc1CNc1ncc(C#N)c(NC[C@]23CC4C[C@H](C2)[C@@H](NC[C@H]2CC[C@H](CO)CC2)[C@@H](C4)C3)n1 (relative stereo) [Example 339]	78	94
COc1ncccc1CNc1ncc(C#N)c(NC[C@]23CC4C[C@H](C2)[C@@H](NC[C@H]2CC[C@H](CO)CC2)[C@@H](C4)C3)n1 (relative stereo) [Example 343]	78	91
COc1ncccc1CNc1ncc(C#N)c(NC[C@]23CC4C[C@H](C2)[C@@H](NC[C@H]2CC[C@H](O)CC2)[C@@H](C4)C3)n1 (relative stereo) [Example 345]	94	81
COc1ccccc1CNc1ncc(C#N)c(NC[C@]23CC4C[C@H](C2)[C@@H](NCC[C@@H](O)CO)[C@@H](C4)C3)n1 (relative stereo) [Example 352]	94	81
C[C@]1(O)CC[C@H](CN[C@@H]2[C@@H]3CC4C[C@H]2C[C@@](CNc2nc(NCc5ccccc5Cl)ncc2C#N)(C4)C3)CC1 (relative stereo) [Example 370]	81	85
COc1ccccc1CNc1ncc(C#N)c(NC[C@]23CC4C[C@H](C2)[C@@H](NC2CCC(C)(O)CC2)[C@@H](C4)C3)n1 (single isomer, unassigned) [Example 119]	77	80
N#Cc1cnc(NCc2ccccc2Cl)nc1NC[C@]12CC3C[C@H](C1)[C@@H](NC1CCC(O)CC1)[C@@H](C3)C2 (stereo partly shown) [Example 95]	84	81
N#Cc1cnc(NCc2ccccc2Cl)nc1NC[C@]12CC3C[C@H](C1)[C@@H](NC1CCN(CCO)CC1)[C@@H](C3)C2 [Example 209]	79	92
CSc1ccccc1CNc1ncc(C#N)c(NC[C@]23CC4C[C@H](C2)C(NC[C@H]2CC[C@H](CO)CC2)[C@@H](C4)C3)n1 (stereo partly shown) [Example 229]	80	95
CCN1CCC(N[C@@H]2[C@@H]3CC4C[C@H]2C[C@@](CNc2nc(NCc5ccccc5Cl)ncc2C#N)(C4)C3)CC1 [Example 249]	82	83
N#Cc1cnc(NCc2cnccc2Cl)nc1NC[C@]12CC3C[C@H](C1)[C@@H](NC1CCC(O)CC1)[C@@H](C3)C2 (stereo partly shown) [Example 251]	75	85
CSc1ccccc1CNc1ncc(C#N)c(NC[C@]23CC4C[C@H](C2)[C@@H](NC[C@H]2CC[C@H](O)CC2)[C@@H](C4)C3)n1 [Example 263]	91	87
CNC1CCC(N[C@@H]2[C@@H]3CC4C[C@H]2C[C@@](CNc2nc(NCc5ccccc5Cl)ncc2C#N)(C4)C3)CC1 (stereo partly shown) [Example 315]	85	86
